Results taken from ChEMBL document CHEMBL1201862, “PubChem BioAssay data set” (2004).
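Grown in 96-well plates, cells were treated for 48 hours with each compound at five concentrations. Insufficient inhibition: endpoint recorded as highest concentration tested. The concentration for 50% growth inhibition is given as GI50.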 Calls of active or inactive are those of the source. Rule as the data show it: active = GI50 up to about 1.1 µM and inactive = higher.

What was measured:
Assay in all cases: NCI anticancer screen, dose series, 48 h
EKVX = system: EKVX
HOP-18 = system: HOP-18
UACC-62 = system: UACC-62
SF-539 = system: SF-539
ACHN = system: ACHN
SF-295 = system: SF-295
786-0 = system: 786-0
A498 = system: A498
A549 = system: A549
NCI-H522 = system: NCI-H522
MOLT-4 = system: MOLT-4
SK-MEL-28 = system: SK-MEL-28
HCC 2998 = system: HCC 2998
OVCAR-4 = system: OVCAR-4
OVCAR-5 = system: OVCAR-5
HOP-62 = system: HOP-62
HL-60 = system: HL-60
COLO 205 = system: COLO 205
NCI-H460 = system: NCI-H460
SK-MEL-5 = system: SK-MEL-5
NCI-H23 = system: NCI-H23
SN12C = system: SN12C
HOP-92 = system: HOP-92
DMS-273 = system: DMS-273
UACC-257 = system: UACC-257
M19-MEL = system: M19-MEL
SK-OV-3 = system: SK-OV-3
LXFL 529 = system: LXFL 529
Malme-3M = system: Malme-3M
CCRF-CEM = system: CCRF-CEM
DLD-1 = system: DLD-1
IGROV-1 = system: IGROV-1
HT-29 = system: HT-29
SNB-19 = system: SNB-19
HCT-15 = system: HCT-15
RPMI-8226 = system: RPMI-8226
SK-MEL-2 = system: SK-MEL-2
KM-20L2 = system: KM-20L2
UO-31 = system: UO-31
HCT-116 = system: HCT-116
CAKI-1 = system: CAKI-1
NCI-H226 = system: NCI-H226
TK-10 = system: TK-10
M14 = system: M14
KM12 = system: KM12
DMS-114 = system: DMS-114
SNB-78 = system: SNB-78
RXF 631 = system: RXF 631
LOX IMVI = system: LOX IMVI
K562 = system: K562
RXF 393 = system: RXF 393
SR = system: SR
U-251 = system: U-251
OVCAR-8 = system: OVCAR-8
SW-620 = system: SW-620
SF-268 = system: SF-268
OVCAR-3 = system: OVCAR-3
XF498 = system: XF498
SNB-75 = system: SNB-75

## CCOc1cc2c(cc1OC)c[n+](C)c1c3cc(OC)c(OC)cc3ccc21
EKVX
  GI50: > 100 µM (inactive)
HOP-18
  GI50: > 48.6 µM (inactive)
UACC-62
  GI50: > 91 µM (inactive)
SF-539
  GI50: > 100 µM (inactive)
ACHN
  GI50: > 100 µM (inactive)
SF-295
  GI50: > 100 µM (inactive)
786-0
  GI50: > 42.1 µM (inactive)
A498
  GI50: 47.6 µM (inactive)
A549
  GI50: > 100 µM (inactive)
NCI-H522
  GI50: > 52.1 µM (inactive)
MOLT-4
  GI50: > 81.3 µM (inactive)
SK-MEL-28
  GI50: > 64.1 µM (inactive)
HCC 2998
  GI50: > 100 µM (inactive)
OVCAR-4
  GI50: > 100 µM (inactive)
OVCAR-5
  GI50: > 49.1 µM (inactive)
HOP-62
  GI50: > 81.7 µM (inactive)
HL-60
  GI50: 17.2 µM (inactive)
COLO 205
  GI50: 31.6 µM (inactive)
NCI-H460
  GI50: > 73.6 µM (inactive)
SK-MEL-5
  GI50: > 50.4 µM (inactive)
NCI-H23
  GI50: > 93.5 µM (inactive)
SN12C
  GI50: 77.4 µM (inactive)
HOP-92
  GI50: 27 µM (inactive)
DMS-273
  GI50: 27.8 µM (inactive)
UACC-257
  GI50: > 61.4 µM (inactive)
M19-MEL
  GI50: > 56.1 µM (inactive)
SK-OV-3
  GI50: > 100 µM (inactive)
LXFL 529
  GI50: 27 µM (inactive)
Malme-3M
  GI50: > 77.6 µM (inactive)
CCRF-CEM
  GI50: 35.9 µM (inactive)
DLD-1
  GI50: > 78.2 µM (inactive)
IGROV-1
  GI50: > 66.5 µM (inactive)
HT-29
  GI50: > 100 µM (inactive)
SNB-19
  GI50: > 52.5 µM (inactive)
HCT-15
  GI50: > 75.2 µM
RPMI-8226
  GI50: 40.7 µM (inactive)
SK-MEL-2
  GI50: 33.3 µM (inactive)
KM-20L2
  GI50: > 100 µM (inactive)
UO-31
  GI50: > 100 µM (inactive)
HCT-116
  GI50: 49.1 µM (inactive)
CAKI-1
  GI50: > 67.8 µM (inactive)
NCI-H226
  GI50: > 57.1 µM (inactive)
TK-10
  GI50: 59.4 µM (inactive)
M14
  GI50: > 100 µM (inactive)
KM12
  GI50: 72.4 µM (inactive)
DMS-114
  GI50: 18.2 µM (inactive)
SNB-78
  GI50: > 57 µM (inactive)
RXF 631
  GI50: 22.6 µM (inactive)
LOX IMVI
  GI50: 46.6 µM (inactive)
K562
  GI50: > 34.3 µM (inactive)
RXF 393
  GI50: 34 µM (inactive)
SR
  GI50: 46.6 µM (inactive)
U-251
  GI50: > 33.4 µM (inactive)
OVCAR-8
  GI50: > 60.3 µM (inactive)
SW-620
  GI50: 46.5 µM (inactive)
SF-268
  GI50: > 93.3 µM (inactive)
OVCAR-3
  GI50: > 100 µM (inactive)

## Cc1cccc(NC(=O)c2c(N)[n+]([O-])c3ccccc3[n+]2[O-])c1
EKVX
  GI50: 16.9 µM (inactive)
HOP-18
  GI50: 18.2 µM (inactive)
SF-539
  GI50: 5.05 µM (inactive)
ACHN
  GI50: 16.1 µM (inactive)
SF-295
  GI50: 10.9 µM (inactive)
786-0
  GI50: 5.02 µM (inactive)
A498
  GI50: 16.1 µM (inactive)
A549
  GI50: 16.1 µM (inactive)
NCI-H522
  GI50: 6.01 µM (inactive)
MOLT-4
  GI50: 4.89 µM (inactive)
SK-MEL-28
  GI50: 8.05 µM (inactive)
OVCAR-4
  GI50: 9.98 µM (inactive)
OVCAR-5
  GI50: 26.7 µM (inactive)
HOP-62
  GI50: 17.1 µM (inactive)
HL-60
  GI50: 8.73 µM (inactive)
COLO 205
  GI50: 13.3 µM (inactive)
NCI-H460
  GI50: 12.9 µM (inactive)
SK-MEL-5
  GI50: 5.53 µM (inactive)
NCI-H23
  GI50: 9.68 µM (inactive)
SN12C
  GI50: 4.85 µM (inactive)
HOP-92
  GI50: 15.2 µM (inactive)
DMS-273
  GI50: 9.51 µM (inactive)
UACC-257
  GI50: 11.3 µM (inactive)
M19-MEL
  GI50: 8.97 µM (inactive)
XF498
  GI50: 11.4 µM (inactive)
SK-OV-3
  GI50: 21.1 µM (inactive)
LXFL 529
  GI50: 11 µM (inactive)
Malme-3M
  GI50: 12.7 µM (inactive)
CCRF-CEM
  GI50: 4.68 µM (inactive)
DLD-1
  GI50: 11.7 µM (inactive)
IGROV-1
  GI50: 5.11 µM (inactive)
HT-29
  GI50: 13.7 µM (inactive)
SNB-19
  GI50: 15.8 µM (inactive)
SK-MEL-2
  GI50: 7.76 µM (inactive)
KM-20L2
  GI50: 16.6 µM (inactive)
UO-31
  GI50: 18.4 µM (inactive)
HCT-116
  GI50: 7.69 µM (inactive)
CAKI-1
  GI50: 13.9 µM (inactive)
NCI-H226
  GI50: 5.66 µM (inactive)
M14
  GI50: 12 µM (inactive)
KM12
  GI50: 14.9 µM (inactive)
SNB-78
  GI50: 11.9 µM (inactive)
RXF 631
  GI50: 1.77 µM (inactive)
K562
  GI50: 5.68 µM (inactive)
RXF 393
  GI50: 4.03 µM (inactive)
SR
  GI50: 10.9 µM (inactive)
U-251
  GI50: 1.78 µM (inactive)
OVCAR-8
  GI50: 10.2 µM (inactive)
SW-620
  GI50: 8.38 µM (inactive)
SF-268
  GI50: 7.28 µM (inactive)
OVCAR-3
  GI50: 15.6 µM (inactive)
SNB-75
  GI50: 13 µM (inactive)
